The structures appear in SMILES notation.

The values that follow come from patent US20240228493A1, “LRRK2 INHIBITORS AND USES THEREOF” (NEURON23, ICN., priority 2022, published 2024).

In data set [1] the target is T1, wt human LRRK2, catalytic site (Homo sapiens, UniProt Q5S007).
T1 construct: wt human LRRK2, catalytic site, catalytic site (ThermoFisher/USA); purchased ThermoFisher
Description: TR-FRET LanthaScreen Tb Kinase Activity Assay, LRRK2 inhibition. In kind it is biochemical. The following applies: 2 nM wt human LRRK2, 400 nM peptide, 38 μM ATP. An outline of the steps:
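Fluorescein-ERM (LRRKtide) peptide (400 nM) phosphorylated by 2 nM wt human LRRK2 catalytic site with 38 μM ATP in 1× Kinase Buffer A, 120 min at room temperature after 15 min compound–kinase preincubation. EDTA plus Tb-anti-pLRRKtide antibody added, read after 60 min; inhibition from TR-FRET emission ratios.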

Another data set deals with Caco-2 cells. Description: Caco-2 bidirectional permeability. The format is in vitro ADME. The following applies: for Caco-2 ER: Efflux Ratio=Papp(BA)/Papp(AB); for Caco-2 A2B (10^−6 cm/s): apical to basolateral; for Caco-2 A2B (10^−6 cm/s) / Caco-2 B2A (10^−6 cm/s): 2 hours, pH 7.4; for Caco-2 B2A (10^−6 cm/s): basolateral to apical. An outline of the steps: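 Caco-2 monolayers were grown 21–28 days on PET inserts and run in duplicate in HBSS with 10 mM HEPES, pH 7.4. Test compound was dosed bidirectionally at […] for 2 h at 37 °C; quantification was by LC-MS/MS. Papp and efflux ratio (B-A/A-B) were calculated, with lucifer yellow monolayer integrity checks.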
A general note: Caco-2 cells form a polarised layer with tight junctions and transporters.

Another data set has as its system human hepatocyte. As to the kind of experiment: Human hepatocyte stability, predicted hepatic clearance (h-Hept CL predict). In kind it is in vitro ADME. The following applies: human hepatocytes, 0.5×10^6 cells/mL, 1 μM, values without asterisk. An outline of the steps: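 Cryopreserved human hepatocytes, 0.5×10^6 viable cells/mL in William's E/GlutaMAX, incubated with compound at 1 μM final, duplicates. Sampling at 0-120 min, LC/MS/MS parent loss gives t1/2, converted to CLint and scaled to predicted hepatic clearance (well-stirred model, fub assumed 1).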

T1 sequence (Q5S007 1879-2138 limits assumed): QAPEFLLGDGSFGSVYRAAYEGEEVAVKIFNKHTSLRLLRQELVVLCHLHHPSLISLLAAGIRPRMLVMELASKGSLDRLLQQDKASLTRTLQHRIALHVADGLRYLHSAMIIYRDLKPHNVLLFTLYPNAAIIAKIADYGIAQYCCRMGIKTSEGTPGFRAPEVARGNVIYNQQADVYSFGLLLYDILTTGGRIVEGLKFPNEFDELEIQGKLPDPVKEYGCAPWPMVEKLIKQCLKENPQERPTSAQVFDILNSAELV

Regarding `Fc1cccc(F)c1C1=Nc2c(Cl)n[nH]c2-c2cc(N3CCOCC3)ccc2N1` (single isomer, unassigned) [Example 35, 4-(3-chloro-5-(2,6-difluorophenyl)-1,6-dihydrobenzo[d]pyrazolo[3,4-f][1,3]diazepin-9-y1)morpholine], in data set [1], the IC50 (usually the concentration that gives 50% inhibition) is under 1 nM. In the data set with Caco-2 cells, the “Caco-2 ER” value was “L (L (Likely)”: ER≥2.5)”, the “Caco-2 A2B (10^−6 cm/s)” value is listed as “H (H (High permeability)”: A2B (B2A)>5)” and the “Caco-2 B2A (10^−6 cm/s)” value is listed as “H (H (High permeability)”: A2B (B2A)>5)”. For the same compound, the “hHep Cl (mL/min/kg)” value in the data set on human hepatocyte is recorded as “L (L (Low Cl)”: Hep Cl (mL/min/kg)<6.3)”.

`Cc1n[nH]c2c1N=C(c1c(F)cccc1F)Nc1ccc(N3CCO[C@H](C(C)(C)O)C3)cc1-2` (single isomer, unassigned) [Example 36]: the IC50 in data set [1] fell in the range of 1 to 100 nM. In the data set with Caco-2 cells, the “Caco-2 ER” value is reported as “L (L (Likely)”: ER≥2.5)”, the “Caco-2 A2B (10^−6 cm/s)” value is on record as “M (M (Moderate permeability)”: 1≤A2B (B2A)≤5)” and the “Caco-2 B2A (10^−6 cm/s)” value was “H (H (High permeability)”: A2B (B2A)>5)”. In addition, the “hHep Cl (mL/min/kg)” value with human hepatocyte is “L (L (Low Cl)”: Hep Cl (mL/min/kg)<6.3)”.

In data set [1], `Cc1n[nH]c2c1N=C(c1c(F)cccc1F)Nc1c-2cc(N2CCO[C@@H](C(C)(C)O)C2)nc1C` (single isomer, unassigned) [Example 39] registered an IC50 of under 1 nM. Moreover, in the data set on Caco-2 cells, the “Caco-2 ER” value is reported as “L (L (Likely)”: ER≥2.5)”, the “Caco-2 A2B (10^−6 cm/s)” value was “M (M (Moderate permeability)”: 1≤A2B (B2A)≤5)” and the “Caco-2 B2A (10^−6 cm/s)” value is recorded as “H (H (High permeability)”: A2B (B2A)>5)”. The “hHep Cl (mL/min/kg)” value with human hepatocyte is given as “L (L (Low Cl)”: Hep Cl (mL/min/kg)<6.3)”.

Turning to `Cc1n[nH]c2c1N=C(c1c(F)cccc1F)Nc1cnc(N3CCS(=O)(=O)CC3)cc1-2` [Example 2, 4-[8-(2,6-difluorophenyl)-5-methyl-3,4,7,9,12-pentazatricyclo[8.4.0.02,6]tetradeca-1(10),2(6),4,7,11,13-hexaen-13-y1]-1,4-thiazinane 1,1-dioxide], the IC50 in data set [1] is under 1 nM. Further, in the data set with Caco-2 cells, the “Caco-2 ER” value was “L (L (Likely)”: ER≥2.5)”, the “Caco-2 A2B (10^−6 cm/s)” value is recorded as “L (L (Low permeability)”: A2B (B2A)<1)” and the “Caco-2 B2A (10^−6 cm/s)” value was “H (H (High permeability)”: A2B (B2A)>5)”. Also, in the data set on human hepatocyte, the “hHep Cl (mL/min/kg)” value was “L (L (Low Cl)”: Hep Cl (mL/min/kg)<6.3)”.

As for `Cc1n[nH]c2c1N=C(c1c(F)cccc1F)Nc1cnc(N3C[C@@H]4C[C@H]3CO4)cc1-2` [Example 6, (1S,4S)-5-[8-(2,6-difluorophenyl)-5-methyl-3,4,7,9,12-pentazatricyclo[8.4.0.02,6]tetradeca-1(10),2(6),4,7,11,13-hexaen-13-y1]-2-oxa-5-azabicyclo[2.2.1]heptane], in data set [1], the IC50 lay within 1 to 100 nM. Also, in the data set on Caco-2 cells, the “Caco-2 ER” value is given as “L (L (Likely)”: ER≥2.5)”, the “Caco-2 A2B (10^−6 cm/s)” value is given as “M (M (Moderate permeability)”: 1≤A2B (B2A)≤5)” and the “Caco-2 B2A (10^−6 cm/s)” value is listed as “H (H (High permeability)”: A2B (B2A)>5)”. Moreover, the “hHep Cl (mL/min/kg)” value in the data set with human hepatocyte was “L (L (Low Cl)”: Hep Cl (mL/min/kg)<6.3)”.

`[2H]C1([2H])OC([2H])([2H])C([2H])([2H])N(c2cc3c(cn2)NC(c2c(F)cccc2F)=Nc2c(C)n[nH]c2-3)C1([2H])[2H]` [Example 14, 2,2,3,3,5,5,6,6-octadeuterio-4-[8-(2,6-difluorophenyl)-5-methyl-3,4,7,9,12-pentazatricyclo[8.4.0.02,6]tetradeca-1(10),2(6),4,7,11,13-hexaen-13-yl]morpholine] showed an IC50 in data set [1] of under 1 nM. Also, in the data set with Caco-2 cells, the “Caco-2 ER” value is “L (L (Likely)”: ER≥2.5)”, the “Caco-2 A2B (10^−6 cm/s)” value is reported as “H (H (High permeability)”: A2B (B2A)>5)” and the “Caco-2 B2A (10^−6 cm/s)” value is reported as “H (H (High permeability)”: A2B (B2A)>5)”. Besides, the “hHep Cl (mL/min/kg)” value with human hepatocyte is given as “L (L (Low Cl)”: Hep Cl (mL/min/kg)<6.3)”.

With `Cc1n[nH]c2c1N=C(c1c(F)cccc1F)Nc1cnc(N3CCC[C@@H](C#N)C3)cc1-2` [Example 18, (3R)-1-[8-(2,6-difluorophenyl)-5-methyl-3,4,7,9,12-pentazatricyclo[8.4.0.02,6]tetradeca-1(10),2(6),4,7,11,13-hexaen-13-yl]piperidine-3-carbonitrile], the IC50 in data set [1] is under 1 nM. For the same compound, in the data set on Caco-2 cells, the “Caco-2 ER” value was “L (L (Likely)”: ER≥2.5)”, the “Caco-2 A2B (10^−6 cm/s)” value was “M (M (Moderate permeability)”: 1≤A2B (B2A)≤5)” and the “Caco-2 B2A (10^−6 cm/s)” value is given as “H (H (High permeability)”: A2B (B2A)>5)”. For the same compound, the “hHep Cl (mL/min/kg)” value in the data set on human hepatocyte is given as “L (L (Low Cl)”: Hep Cl (mL/min/kg)<6.3)”.

In the case of `[2H]C1([2H])OC([2H])([2H])C([2H])([2H])N(c2cc3c(cn2)NC(c2c(F)cccc2F)=Nc2cn[nH]c2-3)C1([2H])[2H]` [Example 20, 2,2,3,3,5,5,6,6-octadeuterio-4-[8-(2,6-difluorophenyl)-3,4,7,9,12-pentazatricyclo[8.4.0.02,6]tetradeca-1(10),2(6),4,7,11,13-hexaen-13-yl]morpholine], in data set [1], the IC50 is under 1 nM. In the data set with Caco-2 cells, the “Caco-2 ER” value is on record as “L (L (Likely)”: ER≥2.5)”, the “Caco-2 A2B (10^−6 cm/s)” value was “M (M (Moderate permeability)”: 1≤A2B (B2A)≤5)” and the “Caco-2 B2A (10^−6 cm/s)” value is recorded as “H (H (High permeability)”: A2B (B2A)>5)”. Further, the “hHep Cl (mL/min/kg)” value in the data set on human hepatocyte is on record as “L (L (Low Cl)”: Hep Cl (mL/min/kg)<6.3)”.

Regarding `Fc1cccc(F)c1C1=Nc2c(Cl)n[nH]c2-c2cc(N3CCOCC3)ncc2N1` [Example 23, 4-(3-chloro-5-(2,6-difluorophenyl)-1,6-dihydropyrazolo[4,3-d]pyrido[4,3-f][1,3]diazepin-9-yl)morpholine], the IC50 in data set [1] is under 1 nM. In the data set on Caco-2 cells, the “Caco-2 ER” value is “L (L (Likely)”: ER≥2.5)”, the “Caco-2 A2B (10^−6 cm/s)” value is recorded as “M (M (Moderate permeability)”: 1≤A2B (B2A)≤5)” and the “Caco-2 B2A (10^−6 cm/s)” value was “H (H (High permeability)”: A2B (B2A)>5)”. Also, the “hHep Cl (mL/min/kg)” value in the data set with human hepatocyte is listed as “L (L (Low Cl)”: Hep Cl (mL/min/kg)<6.3)”.

`C[C@H]1CN(c2cc3c(cn2)NC(c2c(F)cccc2F)=Nc2c(Cl)n[nH]c2-3)C[C@H](C)O1` [Example 26, (2S,6S)-4-(3-chloro-5-(2,6-difluorophenyl)-1,6-dihydropyrazolo[4,3-d]pyrido[4,3-f][1,3]diazepin-9-yl)-2,6-dimethylmorpholine] displayed an IC50 in data set [1] of under 1 nM. In the data set with Caco-2 cells, the “Caco-2 ER” value is “L (L (Likely)”: ER≥2.5)”, the “Caco-2 A2B (10^−6 cm/s)” value is “H (H (High permeability)”: A2B (B2A)>5)” and the “Caco-2 B2A (10^−6 cm/s)” value is “H (H (High permeability)”: A2B (B2A)>5)”. Further, the “hHep Cl (mL/min/kg)” value with human hepatocyte was “I (I (Intermediate Cl)”: 6.3≤Hep Cl (mL/min/kg)≤14.7)”.

On to `[2H]C([2H])([2H])c1n[nH]c2c1N=C(c1c(F)cccc1F)Nc1cnc(N3CCO[C@H](C)C3)cc1-2` [Example 27, (2R)-4-[8-(2,6-difluorophenyl)-5-(trideuteriomethyl)-3,4,7,9,12-pentazatricyclo[8.4.0.02,6]tetradeca-1(10),2(6),4,7,11,13-hexaen-13-y1]-2-methyl-morpholine], for which, in data set [1], the IC50 was under 1 nM. For the same compound, in the data set on Caco-2 cells, the “Caco-2 ER” value is recorded as “L (L (Likely)”: ER≥2.5)”, the “Caco-2 A2B (10^−6 cm/s)” value is recorded as “H (H (High permeability)”: A2B (B2A)>5)” and the “Caco-2 B2A (10^−6 cm/s)” value is “H (H (High permeability)”: A2B (B2A)>5)”. Besides, the “hHep Cl (mL/min/kg)” value with human hepatocyte is recorded as “L (L (Low Cl)”: Hep Cl (mL/min/kg)<6.3)”.

`Cc1n[nH]c2c1N=C(c1c(F)cccc1F)Nc1cnc(-c3cnn(CC(F)F)c3)cc1-2` [Example 28, 13-[1-(2,2-difluoroethyl)pyrazol-4-y1]-8-(2,6-difluorophenyl)-5-methyl-3,4,7,9,12-pentazatricyclo[8.4.0.02,6]tetradeca-1(10),2(6),4,7,11,13-hexaene]: the IC50 in data set [1] is under 1 nM. Also, in the data set with Caco-2 cells, the “Caco-2 ER” value was “L (L (Likely)”: ER≥2.5)”, the “Caco-2 A2B (10^−6 cm/s)” value is recorded as “M (M (Moderate permeability)”: 1≤A2B (B2A)≤5)” and the “Caco-2 B2A (10^−6 cm/s)” value is listed as “H (H (High permeability)”: A2B (B2A)>5)”. Also, in the data set with human hepatocyte, the “hHep Cl (mL/min/kg)” value is listed as “L (L (Low Cl)”: Hep Cl (mL/min/kg)<6.3)”.

As for `Fc1cccc(F)c1C1=Nc2cn[nH]c2-c2cc(N3CCOCC3)ncc2N1` [Example 33, 4-[8-(2,6-difluorophenyl)-3,4,7,9,12-pentazatricyclo[8.4.0.02,6]tetradeca-1(10),2(6),4,7,11,13-hexaen-13-yl]morpholine], the IC50 in data set [1] was under 1 nM. Further, in the data set on Caco-2 cells, the “Caco-2 ER” value is listed as “L (L (Likely)”: ER≥2.5)”, the “Caco-2 A2B (10^−6 cm/s)” value is “M (M (Moderate permeability)”: 1≤A2B (B2A)≤5)” and the “Caco-2 B2A (10^−6 cm/s)” value was “H (H (High permeability)”: A2B (B2A)>5)”. The “hHep Cl (mL/min/kg)” value with human hepatocyte was “L (L (Low Cl)”: Hep Cl (mL/min/kg)<6.3)”.

In turn, `Cc1n[nH]c2c1N=C(c1c(F)cccc1F)Nc1c-2cc(N2CCO[C@@H](CO)C2)nc1C` [Example 37, (R)-(4-(5-(2,6-difluorophenyl)-3,7-dimethyl-1,6-dihydropyrazolo[4,3-d]pyrido[4,3-f][1,3]diazepin-9-yl)morpholin-2-y1)methanol] gave an IC50 in data set [1] of under 1 nM. In addition, in the data set on Caco-2 cells, the “Caco-2 ER” value is recorded as “L (L (Likely)”: ER≥2.5)”, the “Caco-2 A2B (10^−6 cm/s)” value is reported as “M (M (Moderate permeability)”: 1≤A2B (B2A)≤5)” and the “Caco-2 B2A (10^−6 cm/s)” value is listed as “H (H (High permeability)”: A2B (B2A)>5)”. Further, in the data set on human hepatocyte, the “hHep Cl (mL/min/kg)” value is reported as “L (L (Low Cl)”: Hep Cl (mL/min/kg)<6.3)”.
